The numbers were not newly measured in paper PMC8624105 (Viruses, 2021), which cites them from elsewhere.

The series concerns NHERF1 PDZ domains. As to conditions: PDZ/PBM interaction.

With “ACE2: glycosylated integral membrane protein of 805 residues”, the interaction result is on record as “shown to interact with NHERF1 PDZ domains”.
